Test results reported in patent US11633485B2, “Cleavable esters for nanocarrier-based cancer therapy” (priority 2017, dated 2023).

Experiments:
[1] = Acid strength (pKa) of the ester-forming acid of model compounds; type: physicochemical; details: pKa of the acid forming the ester bond
Description: Table 1 illustrates the effect of acid strength on rate of hydrolytic cleavage for several model compounds.

[2] = Release studies of co-drug loaded nanoparticles, external sink method; type: physicochemical; details: sink conditions, 37° C., acceptor medium heptane/methyl tert-butyl ether 1:1 v/v
Procedure: Release samples were also analyzed by TLC (right panel). […] (lane 3 vs. 2). Free SN-22 is included in lane 1.

[3] = system: MYCN-amplified NB cells (IMR-32, ATCC CCL-127); assay: Antiproliferative effect of co-drug loaded nanoparticles on neuroblastoma cells; type: cell-based; details: IMR-32 cells, doses equivalent to 5-20 ng SN-22 per well, 96-well plates
Procedure: Blank NP were used as a negative control, and unmodified SN-22, diluted in cell culture medium from a DMSO stock, was used as a positive control.
Cell growth curves of NB cells treated with co-drug loaded nanoparticles at doses corresponding to 5 ng SN-22 per well (96-well plates) for 24 hours are shown in comparison to “no treatment”, drug-free nanoparticles and free SN-22 (upper panel). Cell growth inhibition (%) determined 6 days post-treatment is shown for co-drug loaded and drug-free (control) nanoparticles as a function of dose and exposure duration (lower panel).

Molecule: CCOC(C)=O [CH3COOEt]
- Acid pKa [1]: 4.7

Molecule: CCOC(=O)COC(C)=O [CH3COOCH2COOEt]
- Acid pKa [1]: 2.7

Molecule: SN-22 ester of tocopheryl oxyacetic acid [SN22-TOAc]
- Release rate from nanoparticles [2]: more stable retention

Molecule: CCc1c2c(nc3ccccc13)-c1cc3c(c(=O)n1C2)COC(=O)[C@]3(O)CC [SN-22, 7-ethylcamptothecin]
- Cell growth / proliferation inhibition [3]: fully inhibited cell growth

Molecule: CCOC(=O)COC [CH3OCH2COOEt]
- Acid pKa [1]: 3.6

Molecule: CCOC(=O)C(=O)NC [CH3NHCOCOEt]
- Acid pKa [1]: 1.8
